In ChEMBL document CHEMBL1201862, “PubChem BioAssay data set” (2004):
The source made the active and inactive calls.

Key:
[1] = growth suppression of PTEN-null colon cells, dose response, cell-based, HCT116 PTEN knockout (AID 1047); type: functional;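 note: HCT116 colon tumor cells with PTEN knocked out; cells exposed to compound for 60 hours before readout; potency for loss of cell viability measured by luminescence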
[2] = growth suppression of beta-catenin-knockout colon cells, dose response, cell-based, HCT116, human colon tumor (AID 1045); type: functional;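 note: HCT116 colon tumor cells with beta catenin knocked out; cells exposed to compound for 60 hours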
[3] = cytotoxicity in KRAS-transformed pancreatic duct cells, primary screen, cell-based, fluorescence, HTS (AID 431); type: functional; conditions: Homo sapiens;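 note: cell line used: HPDE-C7K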
[4] = cytotoxicity in HPDE-C7 cells, cell-based, fluorescence, HTS (AID 430); type: functional; conditions: Homo sapiens
Aminopeptidase N = target: T1, Aminopeptidase N (Plasmodium falciparum FcB1/Columbia, UniProt O96935); experiment: P. falciparum M1AAP inhibitors, biochemical, fluorogenic H-Leu-NHMec substrate, 1536-well (AID 1445); parameters: species or system Plasmodium falciparum 3D7, 3D7
T1 sequence (O96935 whole entry): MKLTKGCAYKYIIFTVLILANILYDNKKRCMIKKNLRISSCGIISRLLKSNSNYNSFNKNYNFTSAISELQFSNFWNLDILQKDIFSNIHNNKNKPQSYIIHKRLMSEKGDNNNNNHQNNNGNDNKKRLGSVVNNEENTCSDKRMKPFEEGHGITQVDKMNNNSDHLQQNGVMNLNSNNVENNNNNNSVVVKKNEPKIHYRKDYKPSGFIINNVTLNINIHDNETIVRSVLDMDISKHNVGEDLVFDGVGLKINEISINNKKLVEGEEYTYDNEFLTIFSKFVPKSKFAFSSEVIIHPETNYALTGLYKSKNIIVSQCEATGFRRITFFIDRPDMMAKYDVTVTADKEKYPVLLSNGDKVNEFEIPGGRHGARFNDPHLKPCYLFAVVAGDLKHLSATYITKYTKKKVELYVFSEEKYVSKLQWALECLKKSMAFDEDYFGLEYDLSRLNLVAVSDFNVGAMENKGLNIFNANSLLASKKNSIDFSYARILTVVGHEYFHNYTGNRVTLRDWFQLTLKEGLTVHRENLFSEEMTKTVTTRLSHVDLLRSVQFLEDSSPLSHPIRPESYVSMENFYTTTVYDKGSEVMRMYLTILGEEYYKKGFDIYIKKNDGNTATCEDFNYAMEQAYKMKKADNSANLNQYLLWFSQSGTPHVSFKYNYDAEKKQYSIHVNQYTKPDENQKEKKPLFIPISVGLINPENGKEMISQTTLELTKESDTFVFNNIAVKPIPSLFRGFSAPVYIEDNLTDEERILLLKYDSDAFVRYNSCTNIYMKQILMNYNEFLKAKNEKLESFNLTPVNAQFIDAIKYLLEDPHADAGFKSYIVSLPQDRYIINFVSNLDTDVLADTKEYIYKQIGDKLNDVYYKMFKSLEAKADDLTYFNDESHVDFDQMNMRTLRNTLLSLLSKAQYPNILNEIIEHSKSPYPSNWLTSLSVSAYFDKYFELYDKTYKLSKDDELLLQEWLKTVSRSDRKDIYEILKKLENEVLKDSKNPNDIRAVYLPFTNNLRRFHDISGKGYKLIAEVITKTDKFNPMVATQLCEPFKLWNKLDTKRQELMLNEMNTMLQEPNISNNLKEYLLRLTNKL

[5] = THP-1 cell cytotoxicity, dose response, cytotoxicity control for Vif-APOBEC3G degradation inhibitor project, THP-1 cells (AID 1117359); type: functional; conditions: Human immunodeficiency virus 1, THP-1
[6] = inhibitors of intracellular T. cruzi replication, confirmation, NIH3T3 host cells, beta-gal luminescence (AID 2044); type: functional, cell-based;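 note: intracellular parasites grown in NIH/3T3 mouse fibroblasts as host cells; luminescent beta-galactosidase reporter signal from transgenic T. cruzi replicating inside host cells; inhibitors lower the luminescence signal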
[7] = cytotoxicity toward NIH3T3 fibroblasts, dose response, counter-screen, cell-based, ATP luminescence, mouse fibroblasts (AID 2010); type: functional; conditions: NIH3T3;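 note: cells exposed to compound for about 90 hours before reading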
[8] = target: T2, DNA repair protein RAD52 homolog (Homo sapiens, UniProt P43351); type: functional, biochemical
T2 sequence (P43351 whole entry): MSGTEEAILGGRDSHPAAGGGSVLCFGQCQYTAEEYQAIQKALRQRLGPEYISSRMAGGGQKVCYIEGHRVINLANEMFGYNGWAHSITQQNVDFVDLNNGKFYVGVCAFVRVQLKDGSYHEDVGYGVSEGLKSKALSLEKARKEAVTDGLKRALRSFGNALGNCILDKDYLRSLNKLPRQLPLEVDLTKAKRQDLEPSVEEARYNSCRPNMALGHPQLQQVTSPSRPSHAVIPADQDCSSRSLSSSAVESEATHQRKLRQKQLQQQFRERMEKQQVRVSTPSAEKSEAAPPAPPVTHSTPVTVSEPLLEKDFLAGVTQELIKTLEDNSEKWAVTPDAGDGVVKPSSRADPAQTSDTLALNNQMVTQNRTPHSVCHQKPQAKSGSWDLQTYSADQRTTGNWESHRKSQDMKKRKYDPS

BJ [9] = experiment: cytotoxicity toward BJ-TERT-LT-ST fibroblasts, dose response, cell-based, RAS-independent, luminescence (AID 1935); type: functional; conditions: Homo sapiens;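 note: BJ fibroblasts immortalized with TERT plus LT and ST oncogenes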
[10] = cytotoxicity toward DRD oncogenic fibroblasts, dose response, cell-based, non-viral oncogenic, luminescence (AID 1934); type: functional; conditions: Homo sapiens
BJ [11] = experiment: cytotoxicity toward BJ-TERT fibroblasts, dose response, cell-based, RAS-independent, luminescence (AID 1933); type: functional; conditions: Homo sapiens
Protein RecA = target: T3, Protein RecA (Mycobacterium tuberculosis, UniProt P9WHJ3); experiment: Fluorescence Cell-Free Homogeneous Dose Retest to Identify Inhibitors of RecA-Intein Splicing Activity. [Related pubchem assays (depositor defined):AID2097, AID2223, AID489010, AID492950]; type: functional
T3 sequence (P9WHJ3 whole entry): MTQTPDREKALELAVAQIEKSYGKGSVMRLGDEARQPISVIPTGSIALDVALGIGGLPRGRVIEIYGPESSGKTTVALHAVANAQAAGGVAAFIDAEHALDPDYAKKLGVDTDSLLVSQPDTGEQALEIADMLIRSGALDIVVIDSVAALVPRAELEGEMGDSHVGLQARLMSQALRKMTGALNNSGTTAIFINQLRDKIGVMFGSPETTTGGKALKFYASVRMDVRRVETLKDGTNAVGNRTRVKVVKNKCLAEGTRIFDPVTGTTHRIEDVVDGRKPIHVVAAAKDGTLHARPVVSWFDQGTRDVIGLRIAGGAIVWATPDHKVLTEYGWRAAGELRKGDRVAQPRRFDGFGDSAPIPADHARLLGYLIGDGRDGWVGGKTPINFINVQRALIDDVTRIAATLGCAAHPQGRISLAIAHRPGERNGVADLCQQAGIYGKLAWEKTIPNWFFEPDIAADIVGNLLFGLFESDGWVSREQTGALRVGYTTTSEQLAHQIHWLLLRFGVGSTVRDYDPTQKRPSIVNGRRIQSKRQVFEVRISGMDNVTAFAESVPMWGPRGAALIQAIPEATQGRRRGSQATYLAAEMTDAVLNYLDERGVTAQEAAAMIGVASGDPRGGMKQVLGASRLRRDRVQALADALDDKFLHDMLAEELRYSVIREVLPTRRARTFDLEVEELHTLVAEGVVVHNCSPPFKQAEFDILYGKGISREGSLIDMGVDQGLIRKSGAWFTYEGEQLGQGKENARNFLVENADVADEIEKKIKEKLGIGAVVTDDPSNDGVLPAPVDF

[12] = target: T4, Replicative DNA helicase DnaB (Mycobacterium tuberculosis, UniProt P9WMR3); experiment: DnaB intein splicing inhibitors, dose response, biochemical, cell-free fluorescence (AID 449749); type: functional
T4 sequence (P9WMR3 whole entry): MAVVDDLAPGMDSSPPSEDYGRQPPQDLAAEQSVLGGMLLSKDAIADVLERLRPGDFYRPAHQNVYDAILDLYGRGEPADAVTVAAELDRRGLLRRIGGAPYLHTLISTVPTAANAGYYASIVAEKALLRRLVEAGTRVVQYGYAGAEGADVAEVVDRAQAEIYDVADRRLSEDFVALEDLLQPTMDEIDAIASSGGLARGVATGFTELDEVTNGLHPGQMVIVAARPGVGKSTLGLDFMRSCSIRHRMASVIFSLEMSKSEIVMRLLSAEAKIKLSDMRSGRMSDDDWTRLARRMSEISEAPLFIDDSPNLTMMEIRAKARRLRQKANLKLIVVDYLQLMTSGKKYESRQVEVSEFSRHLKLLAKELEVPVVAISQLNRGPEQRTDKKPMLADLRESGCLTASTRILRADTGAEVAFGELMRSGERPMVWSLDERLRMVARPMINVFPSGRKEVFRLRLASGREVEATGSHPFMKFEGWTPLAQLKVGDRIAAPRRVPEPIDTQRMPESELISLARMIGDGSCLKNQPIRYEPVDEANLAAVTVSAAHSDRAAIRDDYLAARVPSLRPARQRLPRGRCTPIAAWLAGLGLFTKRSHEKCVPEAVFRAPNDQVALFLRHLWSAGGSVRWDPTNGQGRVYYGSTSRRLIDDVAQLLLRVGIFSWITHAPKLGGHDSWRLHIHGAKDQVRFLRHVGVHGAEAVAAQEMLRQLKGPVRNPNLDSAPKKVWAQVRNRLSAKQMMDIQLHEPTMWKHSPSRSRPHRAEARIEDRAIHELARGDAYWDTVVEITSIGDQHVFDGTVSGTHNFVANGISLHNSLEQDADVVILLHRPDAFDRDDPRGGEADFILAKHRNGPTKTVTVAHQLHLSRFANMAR

BJ [13] = experiment: cells; type: functional, cell-based; conditions: Homo sapiens
[14] = target: T5, Mannose-6-phosphate isomerase (Homo sapiens, UniProt P34949); experiment: inhibitors of human PMI, primary screen, biochemical, fluorescence intensity, coupled assay (AID 1209)
T5 sequence (P34949 whole entry): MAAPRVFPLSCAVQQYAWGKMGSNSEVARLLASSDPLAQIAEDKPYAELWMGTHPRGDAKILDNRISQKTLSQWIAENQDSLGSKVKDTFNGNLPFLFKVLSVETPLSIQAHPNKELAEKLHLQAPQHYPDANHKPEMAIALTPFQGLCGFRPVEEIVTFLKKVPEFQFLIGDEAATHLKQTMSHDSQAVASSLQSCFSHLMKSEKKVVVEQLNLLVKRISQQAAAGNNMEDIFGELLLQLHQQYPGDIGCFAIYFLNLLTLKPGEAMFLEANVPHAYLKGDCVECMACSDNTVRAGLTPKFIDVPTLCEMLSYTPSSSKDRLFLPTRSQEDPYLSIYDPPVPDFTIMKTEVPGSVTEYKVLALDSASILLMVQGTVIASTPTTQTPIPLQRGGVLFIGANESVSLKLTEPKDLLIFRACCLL

NADPH oxidase 1 = target: T6, NADPH oxidase 1 (Homo sapiens, UniProt Q9Y5S8); type: functional, cell-based;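 note: Cell-based assay with luminescence read-out, IC50 derived from inhibitor dose-response curves; intracellular ROS from endogenous NOX1 in intact HT29 colon cancer cells; potency of inhibitors that lower the ROS luminescence signal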
T6 sequence (Q9Y5S8 whole entry): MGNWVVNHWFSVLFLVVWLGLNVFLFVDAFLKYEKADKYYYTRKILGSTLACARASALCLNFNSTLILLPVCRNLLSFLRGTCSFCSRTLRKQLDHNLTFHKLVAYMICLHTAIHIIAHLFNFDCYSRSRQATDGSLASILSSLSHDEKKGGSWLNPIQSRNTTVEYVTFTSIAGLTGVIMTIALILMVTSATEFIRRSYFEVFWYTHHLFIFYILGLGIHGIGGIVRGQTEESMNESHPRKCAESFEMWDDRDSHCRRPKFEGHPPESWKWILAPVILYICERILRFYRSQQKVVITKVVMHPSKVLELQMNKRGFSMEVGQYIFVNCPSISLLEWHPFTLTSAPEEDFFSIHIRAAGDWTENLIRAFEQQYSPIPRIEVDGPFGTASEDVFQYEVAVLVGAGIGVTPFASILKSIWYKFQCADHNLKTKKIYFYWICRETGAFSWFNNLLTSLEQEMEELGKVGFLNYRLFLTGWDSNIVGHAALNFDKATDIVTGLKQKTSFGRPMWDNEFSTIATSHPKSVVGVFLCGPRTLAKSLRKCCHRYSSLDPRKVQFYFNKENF

[15] = P. falciparum Dd2 growth inhibitors, dose response, SYBR Green, dry powder samples, set 9 (AID 1159568); type: functional, cell-based

SMILES: O=S(=O)(CCN(CCS(=O)(=O)C(F)(F)F)CC1CCCO1)C(F)(F)F (stereo unspecified)
- EC50 [1]: 15.3 µM (active)
- EC50 [2]: 9.32 µM (active)
- EC50 [3]: 10.6 µM (active)
- EC50 [4]: 11.1 µM (active)

SMILES: CCOC(=O)N1CCN(c2c(NCc3ccccc3Cl)c(=O)c2=O)CC1
- IC50 (Aminopeptidase N): 69.3 µM (active)
- CC50 [5]: 29.6 µM (active)

SMILES: COc1cc2nc(N(CCCN(C)C)C(=O)c3ccc(S(=O)(=O)N4CCc5ccccc54)cc3)sc2cc1OC
- EC50 (cells): 0.129 µM (active)
- EC50 [6]: < 0.1 µM (active)
- EC50 [7]: 16.4 µM (active)
- AC50 [8]: 6.54 µM (active)

SMILES: CC(C)N(c1ccccc1)c1ccc(NC(=O)CCl)cc1
- EC50 (cells): 0.102 µM (active)
- EC50 (BJ [9]): > 150 µM (inconclusive)
- EC50 [10]: 1.37 µM (active)
- EC50 [6]: < 0.1 µM (active)
- EC50 (BJ [11]): 0.344 µM (inconclusive)
- EC50 (Protein RecA): 0.505 µM (active)
- AC50 [12]: 4.41 µM (active)
- EC50 (BJ [13]): 108 µM (active)
- EC50 [7]: > 60 µM (not active)

SMILES: Cc1cc2oc(=O)cc(CN3CCN(C/C=C/c4ccccc4)CC3)c2cc1O
- EC50 [3]: > 20 µM (not active)
- EC50 [6]: 0.102 µM (active)
- EC50 [4]: > 20 µM (not active)
- EC50 [7]: > 60 µM (not active)

SMILES: CCOC(=O)N1CCN(S(=O)(=O)c2ccc(C(=O)N(CCCN(C)C)c3nc4cc(OC)ccc4s3)cc2)CC1
- EC50 (cells): 0.03 µM (active)
- EC50 [6]: < 0.1 µM (active)
- EC50 [7]: > 30 µM (not active)

SMILES: CN(O)/C=N/C(=S)Nc1ccc(Cl)cc1Cl
- IC50 [14]: > 50 µM (not active)

SMILES: Fc1ccc(-c2nc(-c3ccccc3)c(-c3ccccc3)[nH]2)cc1
- IC50 (NADPH oxidase 1): > 17 µM (not active)

SMILES: C[C@@H]1CCCCO[C@@H](CN(C)C(=O)Nc2cccc3ccccc23)[C@H](C)CN([C@@H](C)CO)C(=O)c2cc(NC(=O)CCC(F)(F)F)ccc2O1
- AC50 [15]: 6.54 µM (active)

SMILES: C[C@@H]1CCCCO[C@H](CN(C)S(=O)(=O)c2ccc(F)cc2)[C@@H](C)CN([C@@H](C)CO)C(=O)c2cc(N(C)C)ccc2O1
- AC50 [15]: 2.17 µM (active)

SMILES: Clc1ccc(-c2nc(-c3ccccc3)c(-c3ccccc3)[nH]2)cc1
- IC50 (NADPH oxidase 1): > 17 µM (not active)
